The record followed here is patent US11098040B2, “Compounds and methods of use” (Ferro Therapeutics, Inc., priority 2018, dated 2021).

The term IC50 denotes the concentration that gives 50% inhibition.

Data set [1] in a line: Whole blood stability, human. The format is in vitro ADME. From the text:
(§1) The results of the assay on stability in blood and IC50 values for pancreatic cancer cell line KP4 are given below in Table 24.

A short description of data set [2]: Whole blood stability, mouse. The class given is in vitro ADME.
Excerpt: as §1

Data set [3] concerns KP4. In words: Cell viability assay (CellTiter Glo), pancreatic ductal adenocarcinoma KP4. The class given is cell-based, human. The note with it: Homo sapiens, KP-4, 96 h, pancreatic cancer cell line KP4, 96 hours, CellTiter Glo; read-out: IC50 μM KP4. The essentials: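 KP4 cells seeded at 1,000–10,000 per well, treated 96 h with 9-point 3-fold dilutions from 30 μM top (4.6 nM–30 μM, duplicates; ≤0.25% DMSO). Viability by CellTiter Glo luminescence; % inhibition relative to DMSO-only wells, giving IC50, relative IC50 or % top inhibition.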
On the technique in general: Cellular ATP, detected with luciferase, serves as a proxy for viable cell number.

Regarding `CN(C)C(=O)[C@H]1Cc2c([nH]c3ccccc23)[C@H](c2ccc(S(=O)(=O)C3CCCC3)cc2)N1C(=O)CCl` [Compound 69], the “Whole Blood Stability % Remaining at 37° C. Human” value in data set [1] (0 min) is reported as 100.0%; in data set [1] (30 min), 48.4%; in data set [1] (60 min) it was 18.3%. The “Whole Blood Stability % Remaining at 37° C. Mouse” value in data set [2] (0 min) turned out to be 100.0%; in data set [2] (30 min) it was 63.8%; in data set [2] (60 min) it was 29.3%. In data set [3], the IC50 lay within 0.01 to 0.1 µM.
Regarding `COC(=O)[C@H]1Cc2c([nH]c3ccccc23)[C@H](c2ccc(S(=O)(=O)N[C@]34C[C@H]5C[C@H](C[C@H](C5)C3)C4)cc2)N1C(=O)/C=C/CCl` [Compound 30], the “Whole Blood Stability % Remaining at 37° C. Human” value in data set [1] (0 min) is on record as 100.0%; in data set [1] (30 min), 62.1%; in data set [1] (60 min), 38.1%. In addition, the “Whole Blood Stability % Remaining at 37° C. Mouse” value turned out to be 100.0% in data set [2] (0 min), 85.3% in data set [2] (30 min) and 75.9% in data set [2] (60 min). In data set [3], the IC50 lay in the range of 0.5 to 1 µM.
As for `COC(=O)c1ccc([C@@H]2c3[nH]c4ccc(F)cc4c3C[C@H](C(=O)OC)N2C(=O)CCl)cc1` [Compound 92], the “Whole Blood Stability % Remaining at 37° C. Human” value is 100.0% in data set [1] (0 min), 40.2% in data set [1] (30 min) and 21.0% in data set [1] (60 min). Further, the “Whole Blood Stability % Remaining at 37° C. Mouse” value in data set [2] (0 min) worked out at 100.0%; in data set [2] (30 min) it was 0.0%; in data set [2] (60 min), 0.0%. The IC50 in data set [3] lay in the range of 0.1 to 0.5 µM.
As to `CC(=O)Nc1ccc([C@@H]2c3[nH]c4ccccc4c3C[C@H](C(=O)N(C)C)N2C(=O)CCl)cc1` [Compound 71a], the entries for the “Whole Blood Stability % Remaining at 37° C. Human” value in data set [1] (0 min), in data set [1] (30 min) and in data set [1] (60 min) were 100.0%, 54.9% and 25.7%, respectively. The “Whole Blood Stability % Remaining at 37° C. Mouse” value in data set [2] (0 min) was determined as 100.0%; in data set [2] (30 min) it was 76.5%; in data set [2] (60 min) it was 43.8%. The IC50 in data set [3] was above 1 µM.
For the molecule `CN(C)C(=O)c1ccc([C@H]2c3sc4ccccc4c3C[C@H](C(=O)N(C)C)N2C(=O)CCl)cc1` [Compound 55], the “Whole Blood Stability % Remaining at 37° C. Human” value worked out at 100.0% in data set [1] (0 min), 50.6% in data set [1] (30 min) and 20.6% in data set [1] (60 min). The “Whole Blood Stability % Remaining at 37° C. Mouse” value in data set [2] (0 min) was determined as 100.0%; in data set [2] (30 min), 51.4%; in data set [2] (60 min) it was 24.6%. For the same molecule, in data set [3], the IC50 is 0.1 to 0.5 µM.
`CN(C)C(=O)c1ccc([C@H]2c3[nH]c4ccccc4c3C[C@H](C(=O)N(C)C)N2C(=O)CCl)cc1` [Compound 38]: the “Whole Blood Stability % Remaining at 37° C. Human” value in data set [1] (0 min) amounted to 100.0%; in data set [1] (30 min), 46.2%; in data set [1] (60 min), 28.5%. In addition, the “Whole Blood Stability % Remaining at 37° C. Mouse” value in data set [2] (0 min) came to 100.0%; in data set [2] (30 min), 72.9%; in data set [2] (60 min), 62.0%. Also, the IC50 in data set [3] was 0.5 to 1 µM.
For `COC(=O)[C@H]1Cc2c([nH]c3ccccc23)[C@H](c2ccc(C(=O)O)cc2)N1C(=O)CCl` [Compound 4], the “Whole Blood Stability % Remaining at 37° C. Human” value in data set [1] (0 min) stood at 100.0%; in data set [1] (30 min), 59.3%; in data set [1] (60 min) it was 57.9%. For the same molecule, the “Whole Blood Stability % Remaining at 37° C. Mouse” value in data set [2] (0 min) was determined as 100.0%; in data set [2] (30 min), 76.6%; in data set [2] (60 min) it was 63.9%. Further, the IC50 in data set [3] is above 1 µM.
Consider `COC(=O)[C@H]1Cc2c([nH]c3ccc(Br)cc23)[C@H](c2ccc(C(=O)OCC3CC3)cc2)N1C(=O)CCl` [Compound 87], for which the “Whole Blood Stability % Remaining at 37° C. Human” value is on record as 100.0% in data set [1] (0 min), 63.2% in data set [1] (30 min) and 32.2% in data set [1] (60 min). Besides, the entries for the “Whole Blood Stability % Remaining at 37° C. Mouse” value in data set [2] (0 min), in data set [2] (30 min) and in data set [2] (60 min) were 100.0%, 0.0% and 0.0%, respectively. Also, the IC50 in data set [3] is below 0.01 µM.
Consider `COC(=O)c1ccc([C@H]2c3[nH]c4ccc(Br)cc4c3C[C@H](C(=O)OC)N2C(=O)CCl)cc1` [Compound 88], for which the “Whole Blood Stability % Remaining at 37° C. Human” value in data set [1] (0 min) stood at 100.0%; in data set [1] (30 min) it was 56.4%; in data set [1] (60 min) it was 27.0%. Further, the results for the “Whole Blood Stability % Remaining at 37° C. Mouse” value in data set [2] (0 min), in data set [2] (30 min) and in data set [2] (60 min) were 100.0%, 0.0% and 0.0%, respectively. Also, the IC50 in data set [3] was below 0.01 µM.
`COC(=O)c1ccc([C@@H]2c3c(c4ccccc4n3C)C[C@H](C(=O)OC)N2C(=O)CCl)cc1` [Compound 73]: the “Whole Blood Stability % Remaining at 37° C. Human” value in data set [1] (0 min) is 100.0%; in data set [1] (30 min) it was 55.1%; in data set [1] (60 min) it was 36.1%. Moreover, the “Whole Blood Stability % Remaining at 37° C. Mouse” value was found to be 100.0% in data set [2] (0 min), 48.5% in data set [2] (30 min) and 1.1% in data set [2] (60 min). Further, the IC50 in data set [3] was 0.5 to 1 µM.
Turning to `CCC[C@H]1Cc2c([nH]c3ccccc23)[C@H](c2ccc(N3CCOCC3)cc2)N1C(=O)CCl` [Compound 118], the “Whole Blood Stability % Remaining at 37° C. Human” value in data set [1] (0 min) was found to be 100.0%; in data set [1] (30 min) it was 100.2%; in data set [1] (60 min) it was 68.8%. The “Whole Blood Stability % Remaining at 37° C. Mouse” value was found to be 100.0% in data set [2] (0 min), 60.7% in data set [2] (30 min) and 0.0% in data set [2] (60 min). Besides, the IC50 in data set [3] was below 0.01 µM.
Consider `C[C@H]1Cc2c([nH]c3ccc(C#N)cc23)[C@H](c2ccc(N3CCOCC3)cc2)N1C(=O)CCl` [Compound 115], for which the “Whole Blood Stability % Remaining at 37° C. Human” value in data set [1] (0 min) came out at 100.0%; in data set [1] (30 min), 72.9%; in data set [1] (60 min), 44.0%. For the same molecule, the figures for the “Whole Blood Stability % Remaining at 37° C. Mouse” value in data set [2] (0 min), in data set [2] (30 min) and in data set [2] (60 min) were 100.0%, 34.2% and 0.0%, respectively. The IC50 in data set [3] was below 0.01 µM.
For `C[C@H]1Cc2c([nH]c3ccccc23)[C@H](c2ccc(N3CCOCC3)cc2)N1C(=O)CCl` [Compound 103, 2-chloro-1-((1S,3S)-3-methyl-1-(4-morpholinophenyl)-1,3,4,9-tetrahydro-2H-pyrido[3,4-b]indol-2-yl)ethan-1-one], the “Whole Blood Stability % Remaining at 37° C. Human” value in data set [1] (0 min) worked out at 100.0%; in data set [1] (30 min) it was 98.4%; in data set [1] (60 min), 75.2%. For the same molecule, the entries for the “Whole Blood Stability % Remaining at 37° C. Mouse” value in data set [2] (0 min), in data set [2] (30 min) and in data set [2] (60 min) were 100.0%, 87.1% and 56.6%, respectively. Further, the IC50 in data set [3] was below 0.01 µM.
Regarding `CN(C)C(=O)[C@H]1Cc2c([nH]c3ccccc23)[C@H](c2ccc(C(=O)NC[Si](C)(C)C)cc2)N1C(=O)CCl` [Compound 66], the “Whole Blood Stability % Remaining at 37° C. Human” value stood at 100.0% in data set [1] (0 min), 79.1% in data set [1] (30 min) and 45.8% in data set [1] (60 min). In addition, the “Whole Blood Stability % Remaining at 37° C. Mouse” value was found to be 100.0% in data set [2] (0 min), 69.8% in data set [2] (30 min) and 26.8% in data set [2] (60 min). The IC50 in data set [3] was in the range of 0.01 to 0.1 µM.
As for `COC[C@H]1Cc2c([nH]c3ccccc23)[C@@H](c2ccc(C(=O)OC(C)(C)C)cc2)N1C(=O)CCl` [Compound 64], the “Whole Blood Stability % Remaining at 37° C. Human” value turned out to be 100.0% in data set [1] (0 min), 44.3% in data set [1] (30 min) and 14.7% in data set [1] (60 min). Moreover, the “Whole Blood Stability % Remaining at 37° C. Mouse” value in data set [2] (0 min) is listed as 100.0%; in data set [2] (30 min) it was 0.0%; in data set [2] (60 min), 0.0%. Besides, in data set [3], the IC50 lay in the range of 0.1 to 0.5 µM.
Turning to `COC(=O)[C@H]1CC2c3ccccc3NC2[C@H](c2ccc(C(=O)OC(C)(C)C)cc2)N1C(=O)C(F)(F)Cl` (stereo partly drawn) [Compound 34], the “Whole Blood Stability % Remaining at 37° C. Human” value is given as 100.0% in data set [1] (0 min), 104.9% in data set [1] (30 min) and 113.4% in data set [1] (60 min). Besides, the “Whole Blood Stability % Remaining at 37° C. Mouse” value came to 100.0% in data set [2] (0 min), 75.6% in data set [2] (30 min) and 80.6% in data set [2] (60 min). Moreover, the IC50 in data set [3] was above 1 µM.
In the case of `COC(=O)[C@H]1Cc2c([nH]c3ccccc23)[C@H](c2ccc(NC(C)=O)cc2)N1C(=O)CCl` [Compound 80], the “Whole Blood Stability % Remaining at 37° C. Human” value was found to be 100.0% in data set [1] (0 min), 60.9% in data set [1] (30 min) and 49.6% in data set [1] (60 min). Also, the entries for the “Whole Blood Stability % Remaining at 37° C. Mouse” value in data set [2] (0 min), in data set [2] (30 min) and in data set [2] (60 min) were 100.0%, 72.3% and 58.6%, respectively. The IC50 in data set [3] is 0.01 to 0.1 µM.
For the molecule `COC(=O)[C@H]1Cc2c([nH]c3ccccc23)[C@H](c2ccc(NCC3CC3)cc2)N1C(=O)CCl` [Compound 83], the “Whole Blood Stability % Remaining at 37° C. Human” value in data set [1] (0 min) is recorded as 100.0%; in data set [1] (30 min), 78.5%; in data set [1] (60 min) it was 52.9%. In addition, the “Whole Blood Stability % Remaining at 37° C. Mouse” value in data set [2] (0 min) is 100.0%; in data set [2] (30 min), 66.1%; in data set [2] (60 min) it was 30.0%. Besides, in data set [3], the IC50 is below 0.01 µM.
